The structures appear in SMILES notation.

The assay deals with T1, human recombinant full-length fatty acid synthase (FASN) (Homo sapiens, UniProt P49327).
T1 construct: human recombinant full-length fatty acid synthase; made in house; host or cells: SF9 cells
T1 sequence (P49327 whole entry): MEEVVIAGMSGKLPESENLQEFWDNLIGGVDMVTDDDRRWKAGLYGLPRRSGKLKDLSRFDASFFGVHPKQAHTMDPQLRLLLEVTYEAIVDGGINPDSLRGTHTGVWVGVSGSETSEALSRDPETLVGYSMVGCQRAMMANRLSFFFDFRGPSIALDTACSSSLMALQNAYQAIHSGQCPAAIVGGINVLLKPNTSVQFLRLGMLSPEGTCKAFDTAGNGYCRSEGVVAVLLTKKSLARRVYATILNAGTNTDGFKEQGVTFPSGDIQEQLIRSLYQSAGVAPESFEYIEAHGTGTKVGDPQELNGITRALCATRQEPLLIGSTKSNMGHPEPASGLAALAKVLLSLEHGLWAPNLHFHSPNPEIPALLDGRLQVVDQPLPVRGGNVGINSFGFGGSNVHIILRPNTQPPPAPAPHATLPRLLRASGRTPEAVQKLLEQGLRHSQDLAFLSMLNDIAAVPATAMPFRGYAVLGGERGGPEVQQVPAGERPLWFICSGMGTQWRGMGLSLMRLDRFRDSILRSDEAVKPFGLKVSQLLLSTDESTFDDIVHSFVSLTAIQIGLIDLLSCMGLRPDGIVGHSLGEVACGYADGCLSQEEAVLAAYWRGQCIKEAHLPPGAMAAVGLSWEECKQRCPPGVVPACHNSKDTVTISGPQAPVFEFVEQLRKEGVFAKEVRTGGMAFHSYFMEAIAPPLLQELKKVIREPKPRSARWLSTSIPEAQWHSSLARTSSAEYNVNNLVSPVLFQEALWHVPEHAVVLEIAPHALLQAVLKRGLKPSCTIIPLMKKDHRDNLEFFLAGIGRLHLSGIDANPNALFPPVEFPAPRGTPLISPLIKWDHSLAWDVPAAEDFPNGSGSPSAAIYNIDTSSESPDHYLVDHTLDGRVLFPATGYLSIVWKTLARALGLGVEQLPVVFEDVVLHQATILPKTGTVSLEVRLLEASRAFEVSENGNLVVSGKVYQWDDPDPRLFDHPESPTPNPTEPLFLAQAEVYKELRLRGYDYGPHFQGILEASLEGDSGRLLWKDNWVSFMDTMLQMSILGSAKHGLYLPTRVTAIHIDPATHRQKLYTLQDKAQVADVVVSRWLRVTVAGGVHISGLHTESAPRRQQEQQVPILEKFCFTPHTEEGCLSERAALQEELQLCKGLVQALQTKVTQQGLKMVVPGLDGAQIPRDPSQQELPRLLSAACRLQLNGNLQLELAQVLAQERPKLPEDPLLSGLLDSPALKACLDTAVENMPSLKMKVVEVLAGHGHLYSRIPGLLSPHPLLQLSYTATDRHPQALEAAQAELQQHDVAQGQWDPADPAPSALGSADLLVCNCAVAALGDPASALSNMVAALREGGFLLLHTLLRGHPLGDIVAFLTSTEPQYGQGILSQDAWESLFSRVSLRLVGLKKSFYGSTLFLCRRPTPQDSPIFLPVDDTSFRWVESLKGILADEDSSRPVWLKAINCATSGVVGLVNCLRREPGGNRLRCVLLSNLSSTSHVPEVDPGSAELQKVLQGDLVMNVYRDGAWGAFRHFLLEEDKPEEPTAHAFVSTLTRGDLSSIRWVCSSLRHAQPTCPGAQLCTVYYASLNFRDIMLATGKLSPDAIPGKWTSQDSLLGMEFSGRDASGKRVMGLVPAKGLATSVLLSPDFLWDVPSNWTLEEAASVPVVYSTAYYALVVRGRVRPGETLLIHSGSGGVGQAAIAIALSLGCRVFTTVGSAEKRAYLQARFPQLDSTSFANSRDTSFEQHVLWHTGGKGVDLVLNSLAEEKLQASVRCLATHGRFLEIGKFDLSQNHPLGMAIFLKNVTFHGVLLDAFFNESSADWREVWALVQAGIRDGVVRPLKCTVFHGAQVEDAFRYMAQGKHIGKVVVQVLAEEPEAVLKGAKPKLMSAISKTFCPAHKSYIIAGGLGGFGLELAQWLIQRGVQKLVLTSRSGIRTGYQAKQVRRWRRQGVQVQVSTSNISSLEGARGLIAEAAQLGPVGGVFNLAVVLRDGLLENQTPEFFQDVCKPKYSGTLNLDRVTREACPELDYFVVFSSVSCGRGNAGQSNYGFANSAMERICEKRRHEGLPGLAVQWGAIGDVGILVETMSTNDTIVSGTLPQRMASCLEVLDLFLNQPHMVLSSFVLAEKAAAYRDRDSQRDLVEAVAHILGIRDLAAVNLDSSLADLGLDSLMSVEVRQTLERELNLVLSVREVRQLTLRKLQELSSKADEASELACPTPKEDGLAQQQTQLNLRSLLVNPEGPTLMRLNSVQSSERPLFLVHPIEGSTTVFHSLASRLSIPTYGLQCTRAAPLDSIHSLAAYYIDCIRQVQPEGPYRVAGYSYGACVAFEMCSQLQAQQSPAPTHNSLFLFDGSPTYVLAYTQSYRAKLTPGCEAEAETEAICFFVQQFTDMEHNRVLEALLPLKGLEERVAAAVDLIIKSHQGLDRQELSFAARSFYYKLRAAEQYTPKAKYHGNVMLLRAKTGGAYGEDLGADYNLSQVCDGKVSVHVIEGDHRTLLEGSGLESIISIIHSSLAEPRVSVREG
Description: Biochemical activity testing of human fatty acid synthase FASN (NADPH fluorescence intensity assay). As to conditions: NADPH fluorescence decrease (ex 340 nm / em 460 nm), 30 minutes at room temperature, read-out: IC50 FASN (enzyme assay). The source says:
aq (aqueous), h (hour), g (gram), L (liter), mg (milligram), MHz (Megahertz), (melting point), eq (equivalent), mL (milliliter), L (microliter), ACN (acetonitrile), AcOH (acetic acid), CDCl3 (deuterated chloroform), CD3OD (deuterated methanol), CH3CN (acetonitrile), c-hex (cyclohexane), DCC (dicyclohexyl carbodiimide), DCM (dichloromethane), DIC (diisopropyl carbodiimide), DIEA (diisopropylethyl-amine), DMF (dimethylformamide), DMSO (dimethylsulfoxide), DMSO-d6 (deuterated dimethylsulfoxide), EDC (1-(3-dimethyl-amino-propyl)-3-ethylcarbodiimide), ESI (Electro-spray ionization), EtOAc (ethyl acetate), Et2O (diethyl ether), EtOH (ethanol), HATU (dimethylamino-([1,2,3]triazolo[4,5-b]pyridin-3-yloxy)-methylene]-dimethylammonium hexafluorophosphate), HPLC (High Performance Liquid Chromatography), i-PrOH (2-propanol), K2CO3 (potassium carbonate), LC (Liquid Chromatography), MeOH (methanol), MgSO4 (magnesium sulfate), MS (mass spectrometry), MTBE (Methyl tert-butyl ether), NaHCO3 (sodium bicarbonate), NaBH4 (sodium borohydride), NMM (N-methyl morpholine), NMR (Nuclear Magnetic Resonance), PyBOP (benzotriazole-1-yl-oxy-trispyrrolidino-phosphonium hexafluorophosphate), RT (room temperature), Rt (retention time), SPE (solid phase extraction), TBTU (2-(1-H-benzotriazole-1-yl)-1,1,3,3-tetramethyluromium tetrafluoro borate), TEA (triethylamine), TFA (trifluoroacetic acid), THF (tetrahydrofuran), TLC (Thin Layer Chromatography), UV (Ultraviolet). Description of the In Vitro Assays Abbreviations: GST=Glutathione-S-transferase FRET=Fluorescence resonance energy transfer HTRF®=(homogenous time resolved fluorescence) HEPES=4-(2-hydroxyethyl)-1-piperazine ethanesulfonic acid buffer DTT=Dithiothreitol BSA=bovine serum albumin CHAPS=detergent; CHAPS=3[(3-cholamidopropyl)dimethylammonio]-1-propanesulfonate Biochemical Activity Testing of Human Fatty Acid Synthase FASN
Fatty acid synthase FASN is a multifunctional enzyme with seven catalytic activities thereby synthesising long chain fatty acids especially palmitoyl-CoA in the presence of co-factor NADPH starting from the substrates acetyl-CoA and malonyl-CoA. The reductive synthesis is realized by the oxidation of NADPH to NADP. Since NADPH has a high fluorescence intensity quantum yield compared to NADP with excitation at 340 nm and emission at 460 nm, the reaction can be monitored via the decrease in fluorescence intensity. The biochemical FASN activity testing was performed as 384 well two-time-point kinetic fluorescence intensity assay format in Greiner low volume medium binding 384-well black microtiter plates in a total assay volume of 8 μl and was used for high throughput screen. In each well 3 μl 40 nM human recombinant full-length fatty acid synthase (produced in-house in SF9 cells) were dispensed in the following assay buffer: 50 mM potassium phosphate buffer pH 7.0, 0.005% (w/v) BSA, 2 mM Glutathione, 0.02% Tween-20. Then 2 μl of 200 μM NADPH in assay buffer were added, followed by the addition of the test compounds in 10 dilution concentrations starting with 30 μM (final concentration) to get a final DMSO content of 1% (v/v). The mixture was incubated for at least 15 min at room temperature. After the pre-incubation the enzymatic reaction was started by the addition of 2 μl substrate solution (80 μM acetyl-CoA, 240 μM malonyl-CoA). A first fluorescence intensity measurement (time point one) was performed with an Envision multimode reader (Perkin Elmer LAS Germany GmbH) at excitation wavelength 340 nm (lamp mode) and emission wavelength 460 nm. The reaction was incubated for 30 minutes at room temperature. After this the fluorescence intensity was measured again in the Envision using the same parameters as described above (second time point measurement). The data were analysed by subtracting the first time point measurement value from the second time point measurement value (after the enzymatic reaction). The differences of the emission signals were determined. […]
What is called IC50 is the point on the concentration scale where inhibition reaches its midpoint. With `CCNC(=O)C1CC[C@@H](N(C)C(=O)c2ccc(-c3nc4cccc(F)c4o3)cc2)C1` (stereo in doubt) [Compound A100, N-((1R,3S)-3-ethylcarbamoyl-cyclopentyl)-4-(7-fluoro-benzooxazol-2-yl)-N-methyl-benzamide], the half-maximal inhibitory concentration (IC50) was under 0.3 µM. `CCNC(=O)[C@H]1CC[C@@H](N(C)C(=O)c2ccc(-c3nc4ccccc4o3)cc2)C1` [Compound A1, 4-(1,3-benzoxazol-2-yl)-N-[(1R,3S)-3-(ethylcarbamoyl)cyclopentyl]-N-methyl-benzamide]: the IC50 is under 0.3 µM. Consider `CCNC(=O)[C@H]1CC[C@@H](N(C)C(=O)c2ccc(-c3nc4ccccc4n3C)cc2)C1` [Compound A2, N-((1R,3S)-3-ethylcarbamoyl-cyclopentyl)-N-methyl-4-(1-methyl-1H-benzoimidazol-2-yl)-benzamide], for which the IC50 was under 0.3 µM. In the case of `CCNC(=O)[C@H]1CC[C@@H](N(C)C(=O)c2ccc(-c3ccc(O[C@@H]4CCOC4)cc3)cc2)C1` [Compound A4, 4′-[(R)-(tetrahydro-furan-3-yl)oxy]-biphenyl-4-carboxylic acid ((1R,3S)-3-ethylcarbamoyl-cyclopentyl)-methyl-amide], the IC50 lay in the range of 0.3 to 3 µM. In the case of `CC(C)NC(=O)[C@H]1CC[C@@H](N(C)C(=O)c2ccc(-c3nc4ccccc4o3)cc2)C1` [Compound A5, 4-benzoxazol-2-yl-N-((1R,3S)-3-isopropylcarbamoyl-cyclopentyl)-N-methyl-benzamide], the IC50 was under 0.3 µM. Regarding `CN(C(=O)c1ccc(-c2nc3ccccc3o2)cc1)[C@@H]1CC[C@H](C(=O)NC2CC2)C1` [Compound A6, 4-benzoxazol-2-yl-N-((1R,3S)-3-cyclopropylcarbamoyl-cyclopentyl)-N-methyl-benzamide], the 50% inhibitory concentration (IC50) is under 0.3 µM.

As to `CN(C(=O)c1ccc(-c2nc3ccccc3o2)cc1)[C@@H]1CC[C@H](C(=O)NC2CCCC2)C1` [Compound A7, 4-benzoxazol-2-yl-N-((1R,3S)-3-cyclopentylcarbamoyl-cyclopentyl)-N-methyl-benzamide], the IC50 was under 0.3 µM. Then `CCNC(=O)[C@H]1CC[C@@H](N(C)C(=O)c2ccc(-c3nc4ccccc4[nH]3)cc2)C1` [Compound A11, 4-(1H-benzimidazol-2-yl)-N-[(1R,3S)-3-(ethylcarbamoyl)cyclopentyl]-N-methyl-benzamide], with under 0.3 µM. Take `CCNC(=O)[C@@H]1CC[C@@H](N(C)C(=O)c2ccc(-c3nc4ccccc4o3)cc2)C1` [Compound A44, 4-(1,3-benzoxazol-2-yl)-N-[(1R,3R)-3-(ethylcarbamoyl)cyclopentyl]-N-methyl-benzamide]: the IC50 is under 0.3 µM. Then `CCNC(=O)[C@H]1CC[C@@H](N(C)C(=O)c2ccc(-c3nc4ccccc4o3)c(OC)c2)C1` [Compound A45, 4-benzoxazol-2-yl-N-((1R,3S)-3-ethylcarbamoyl-cyclopentyl)-3-methoxy-N-methyl-benzamide], with under 0.3 µM; and `CCNC(=O)[C@H]1CC[C@@H](N(C)C(=O)c2ccc(-c3nc4ccccc4o3)cc2OC)C1` [Compound A46, 4-benzoxazol-2-yl-N-((1R,3S)-3-ethylcarbamoyl-cyclopentyl)-2-methoxy-N-methyl-benzamide], with under 0.3 µM; and `CCN(C)C(=O)[C@H]1CC[C@@H](N(C)C(=O)c2ccc(-c3nc4ccccc4o3)cc2)C1` [Compound A47, 4-benzoxazol-2-yl-N-[(1R,3S)-3-(ethyl-methyl-carbamoyl)-cyclopentyl]-N-methyl-benzamide], with 0.3 to 3 µM. Next, `CCN(CC)C(=O)[C@H]1CC[C@@H](N(C)C(=O)c2ccc(-c3nc4ccccc4o3)cc2)C1` [Compound A48, 4-benzoxazol-2-yl-N-((1R,3S)-3-diethylcarbamoyl-cyclopentyl)-N-methyl-benzamide]: 0.3 to 3 µM; `CCNC(=O)[C@H]1CC[C@@H](N(C)C(=O)c2ccc(-c3ccc(C)cc3)cc2)C1` [Compound A49, 4′-methyl-biphenyl-4-carboxylic acid ((1R,3S)-3-ethylcarbamoyl-cyclopentyl)-methyl-amide]: under 0.3 µM; `CCNC(=O)[C@H]1CC[C@@H](N(C)C(=O)c2ccc(-c3ccccc3)cc2)C1` [Compound A50, biphenyl-4-carboxylic acid ((1R,3S)-3-ethylcarbamoyl-cyclopentyl)-methyl-amide]: under 0.3 µM. Regarding `CCNC(=O)[C@H]1CC[C@@H](N(C)C(=O)c2ccc(-c3ccccc3)cc2Cl)C1` [Compound A51, 3-chloro-biphenyl-4-carboxylic acid ((1R,3S)-3-ethylcarbamoyl-cyclopentyl)-methyl-amide], the IC50 is under 0.3 µM. Turning to `CCNC(=O)[C@H]1CC[C@@H](N(C)C(=O)c2ccc(-c3nnc(OC)cc3C)cc2)C1` [Compound A52, N-((1R,3S)-3-ethylcarbamoyl-cyclopentyl)-4-(6-methoxy-4-methyl-pyridazin-3-yl)-N-methyl-benzamide], the IC50 is 3 to 50 µM. Turning to `CCNC(=O)[C@H]1CC[C@@H](N(C)C(=O)c2ccc(-c3ccccc3)cn2)C1` [Compound A53, 5-phenyl-pyridine-2-carboxylic acid ((1R,3S)-3-ethylcarbamoyl-cyclopentyl)-methyl-amide], the IC50 was under 0.3 µM. As to `CCNC(=O)[C@H]1CC[C@@H](N(C)C(=O)c2ccc(C#Cc3ccc(Cl)cc3)cc2)C1` [Compound A54, 4-(4-chloro-phenylethynyl)-N-((1R,3S)-3-ethylcarbamoyl-cyclopentyl)-N-methyl-benzamide], the IC50 was under 0.3 µM. With `CCNC(=O)[C@H]1CC[C@@H](N(C)C(=O)c2ccc(C#Cc3ccc(F)cc3)cc2)C1` [Compound A55, N-((1R,3S)-3-ethylcarbamoyl-cyclopentyl)-4-(4-fluoro-phenylethynyl)-N-methyl-benzamide], the IC50 was under 0.3 µM. Next, `CCNC(=O)[C@H]1CC[C@@H](N(C)C(=O)c2ccc(-c3ccncc3)cc2)C1` [Compound A56, N-((1R,3S)-3-ethylcarbamoyl-cyclopentyl)-N-methyl-4-pyridin-4-yl-benzamide]: under 0.3 µM; `CCNC(=O)[C@H]1CC[C@@H](N(C)C(=O)c2ccc(-c3ccncc3)cc2F)C1` [Compound A57, N-((1R,3S)-3-ethylcarbamoyl-cyclopentyl)-2-fluoro-N-methyl-4-pyridin-4-yl-benzamide]: under 0.3 µM; `CCNC(=O)[C@H]1CC[C@@H](N(C)C(=O)c2c(F)cc(-c3ccc(CC)cc3)cc2F)C1` [Compound A58, 4′-ethyl-3,5-difluoro-biphenyl-4-carboxylic acid ((1R,3S)-3-ethylcarbamoyl-cyclopentyl)-methyl-amide]: under 0.3 µM.

Take `CCNC(=O)[C@H]1CC[C@@H](N(C)C(=O)c2ccc(-c3ccccc3S(C)(=O)=O)cc2)C1` [Compound A59, 2′-methanesulfonyl-biphenyl-4-carboxylic acid ((1R,3S)-3-ethylcarbamoyl-cyclopentyl)-methyl-amide]: the IC50 was under 0.3 µM. As to `CCNC(=O)[C@H]1CC[C@@H](N(C)C(=O)c2ccc(-c3ccccc3S(=O)(=O)NC(C)(C)C)cc2)C1` [Compound A60, 2′-tert-butylsulfamoyl-biphenyl-4-carboxylic acid ((1R,3S)-3-ethylcarbamoyl-cyclopentyl)-methyl-amide], the IC50 was 3 to 50 µM.

The record behind these values is patent publication US9732032B2, “3-aminocyclopentane carboxamide derivatives” (Merck Patent GmbH, priority 2012, dated 2017).
